Laboratory results taken from ChEMBL document CHEMBL4342447, “l-Phenylalanine Alters the Privileged Secondary Metabolite Production in the Marine-Derived Fungus Trichoderma erinaceum F1-1” (J Nat Prod, 2020).

Columns and labels:
[1] = test system: MDA-MB-435; assay: Cytotoxicity against human MDA-MB-435 cells assessed as reduction in cell viability by MTT assay; assay type: functional, cell-based
[2] = test system: A549; assay: Cytotoxicity against human A549 cells assessed as reduction in cell viability by MTT assay; assay type: functional, cell-based

SMILES	IC50 [1] [µM]	IC50 [2] [µM]
COc1cc(C)cc(Oc2cc(C)cc(OC)c2)c1	12.5	–
CC(C)(c1ccc(O)cc1)c1ccc(OCC(O)COc2ccc(C(C)(C)c3ccc(O)cc3)cc2)cc1	22.3	18.4
COc1cc(C)cc(Oc2cc(C)cc(O)c2)c1 [CORDYOL E]	41.1	–
CCC(=O)Oc1cc(C)cc(Oc2cc(C)cc(OC)c2)c1	31.9	–
